Measured values reported in patent publication US10239831B2, “Method for producing bis(3-aminophenyl)disulfides and 3-aminothiols” (BAYER CROPSCIENCE AG, priority 2012, dated 2019).

Test: log P determination
Assay type: physicochemical
Details: for chromatographic logP: HCOOH (acidic); for logP: neutral

Row | Structure (SMILES) | chromatographic logP | logP
1 | O=[N+]([O-])c1cc(SSc2cc([N+](=O)[O-])c(Cl)cc2Cl)c(Cl)cc1Cl [Example 5, 1,1′-Disulphanediylbis(2,4-dichloro-5-nitrobenzene)] | 5.69 | 5.64
2 | Nc1cc(SSc2cc(N)c(Cl)cc2Cl)c(Cl)cc1Cl [Example 14, 3,3′-Disulphanediylbis(4,6-dichloroaniline)] | 5.14 | 4.95
